{"source": "the NIST ThermoML archive (doi:10.1021/je0499723)", "key": {"[1]": {"experiment": "xn = mol fraction of the nth substance listed", "conditions": "Liquid"}, "[2]": {"conditions": "Liquid; for Critical pressure: Direct measurement; for Critical temperature: Visual observation in an unstirred cell"}}, "note": "Numbers after ± are expanded uncertainties."}
{"compound": "COC(F)(F)F", "note": "[trifluoromethoxymethane] + FC(F)C(F)(F)F", "values": [{"measurement": "Critical density", "setting": "[1]; x1 = 0.1859", "value": "555 ± 13", "unit": "kg/m3"}, {"measurement": "Critical density", "setting": "[1]; x1 = 0.3073", "value": "523 ± 12", "unit": "kg/m3"}, {"measurement": "Critical density", "setting": "[1]; x1 = 0.5185", "value": "515 ± 12", "unit": "kg/m3"}, {"measurement": "Critical density", "setting": "[1]; x1 = 0.7094", "value": "491 ± 11", "unit": "kg/m3"}, {"measurement": "Critical density", "setting": "[1]; x1 = 0.8305", "value": "479 ± 11", "unit": "kg/m3"}, {"measurement": "Critical density", "setting": "[1]; x1 = 1", "value": "459 ± 11", "unit": "kg/m3"}]}
{"compound": "FC(C(F)(F)F)C(F)(F)F", "note": "[1,1,1,2,3,3,3-heptafluoropropane]", "values": [{"measurement": "Critical density", "setting": "[2]", "value": "598 ± 14", "unit": "kg/m3"}, {"measurement": "Critical pressure", "setting": "[2]", "value": "2930 ± 12", "unit": "kPa"}, {"measurement": "Critical temperature", "setting": "[2]", "value": "375 ± 0.16", "unit": "K"}]}
{"compound": "COC(F)(F)F", "note": "[trifluoromethoxymethane]", "values": [{"measurement": "Critical density", "setting": "[2]", "value": "459 ± 11", "unit": "kg/m3"}, {"measurement": "Critical pressure", "setting": "[2]", "value": "3640 ± 12", "unit": "kPa"}, {"measurement": "Critical temperature", "setting": "[2]", "value": "377.92 ± 0.16", "unit": "K"}]}
{"compound": "FC(C(F)(F)F)C(F)(F)F", "note": "[1,1,1,2,3,3,3-heptafluoropropane] + COC(F)(F)F", "values": [{"measurement": "Critical density", "setting": "[1]; x2 = 0", "value": "598 ± 14", "unit": "kg/m3"}]}
{"compound": "COC(F)(F)F", "note": "[trifluoromethoxymethane] + FC(C(F)(F)F)C(F)(F)F", "values": [{"measurement": "Critical density", "setting": "[1]; x1 = 0.1647", "value": "574 ± 13", "unit": "kg/m3"}, {"measurement": "Critical density", "setting": "[1]; x1 = 0.3999", "value": "543 ± 13", "unit": "kg/m3"}, {"measurement": "Critical density", "setting": "[1]; x1 = 0.4999", "value": "526 ± 12", "unit": "kg/m3"}, {"measurement": "Critical density", "setting": "[1]; x1 = 0.6664", "value": "508 ± 12", "unit": "kg/m3"}, {"measurement": "Critical density", "setting": "[1]; x1 = 0.8165", "value": "486 ± 11", "unit": "kg/m3"}, {"measurement": "Critical density", "setting": "[1]; x1 = 1", "value": "459 ± 11", "unit": "kg/m3"}]}
{"compound": "FCC(F)(F)F", "note": "[1,1,1,2-tetrafluoroethane] + COC(F)(F)F", "values": [{"measurement": "Critical density", "setting": "[1]; x2 = 0", "value": "508 ± 12", "unit": "kg/m3"}]}
{"compound": "FCC(F)(F)F", "note": "[1,1,1,2-tetrafluoroethane]", "values": [{"measurement": "Critical density", "setting": "[2]", "value": "508 ± 12", "unit": "kg/m3"}, {"measurement": "Critical pressure", "setting": "[2]", "value": "4053 ± 12", "unit": "kPa"}, {"measurement": "Critical temperature", "setting": "[2]", "value": "374.13 ± 0.16", "unit": "K"}]}
{"compound": "FC(F)C(F)(F)F", "note": "[pentafluoroethane]", "values": [{"measurement": "Critical density", "setting": "[2]", "value": "560 ± 13", "unit": "kg/m3"}, {"measurement": "Critical pressure", "setting": "[2]", "value": "3617 ± 12", "unit": "kPa"}, {"measurement": "Critical temperature", "setting": "[2]", "value": "339.2 ± 0.16", "unit": "K"}]}
{"compound": "COC(F)(F)F", "note": "[trifluoromethoxymethane] + FC(F)C(F)C(F)(F)F", "values": [{"measurement": "Critical density", "setting": "[1]; x1 = 1", "value": "459 ± 11", "unit": "kg/m3"}]}
{"compound": "FC(F)C(F)(F)F", "note": "[pentafluoroethane] + COC(F)(F)F", "values": [{"measurement": "Critical density", "setting": "[1]; x2 = 0", "value": "560 ± 13", "unit": "kg/m3"}]}
{"compound": "COC(F)(F)F", "note": "[trifluoromethoxymethane] + FCC(F)(F)F", "values": [{"measurement": "Critical density", "setting": "[1]; x1 = 0.1649", "value": "508 ± 12", "unit": "kg/m3"}, {"measurement": "Critical density", "setting": "[1]; x1 = 0.2914", "value": "492 ± 11", "unit": "kg/m3"}, {"measurement": "Critical density", "setting": "[1]; x1 = 0.4897", "value": "486 ± 11", "unit": "kg/m3"}, {"measurement": "Critical density", "setting": "[1]; x1 = 0.6543", "value": "480 ± 11", "unit": "kg/m3"}, {"measurement": "Critical density", "setting": "[1]; x1 = 0.8151", "value": "468 ± 11", "unit": "kg/m3"}, {"measurement": "Critical density", "setting": "[1]; x1 = 1", "value": "459 ± 11", "unit": "kg/m3"}]}
{"compound": "FC(F)C(F)C(F)(F)F", "note": "(stereo not drawn) [1,1,1,2,3,3-hexafluoropropane]", "values": [{"measurement": "Critical density", "setting": "[2]", "value": "562 ± 13", "unit": "kg/m3"}, {"measurement": "Critical pressure", "setting": "[2]", "value": "3416 ± 12", "unit": "kPa"}, {"measurement": "Critical temperature", "setting": "[2]", "value": "412.41 ± 0.16", "unit": "K"}]}
{"compound": "FC(F)C(F)C(F)(F)F", "note": "(stereo not drawn) [1,1,1,2,3,3-hexafluoropropane] + COC(F)(F)F", "values": [{"measurement": "Critical density", "setting": "[1]; x2 = 0", "value": "562 ± 13", "unit": "kg/m3"}, {"measurement": "Critical density", "setting": "[1]; x2 = 0.2452", "value": "545 ± 13", "unit": "kg/m3"}, {"measurement": "Critical density", "setting": "[1]; x2 = 0.3348", "value": "541 ± 13", "unit": "kg/m3"}, {"measurement": "Critical density", "setting": "[1]; x2 = 0.5434", "value": "518 ± 12", "unit": "kg/m3"}, {"measurement": "Critical density", "setting": "[1]; x2 = 0.7338", "value": "497 ± 12", "unit": "kg/m3"}, {"measurement": "Critical density", "setting": "[1]; x2 = 0.8497", "value": "476 ± 11", "unit": "kg/m3"}]}
